Assay results published in patent publication EP0357092B1, “Preparation of diacetoxybenzylidene diacetates” (KUREHA KAGAKU KOGYO KABUSHIKI KAISHA, priority 1983, dated 1985).
Where two headings read alike, the source gives them in different places.

What was measured:
[1] = Acute mammalian toxicity (oral LD50); details: mouse, in vivo
Method: After dispersing present substance No.1 in an aqueous 0.2 % solution of carboxymethylcellulose, the aqueous dispersion was orally administered to each of male Jcl-ICR mice. As a result, LD₅₀ (acute, oral) of the tested substance was larger than 4,000 mg/kg.

[2] = system: migration of polymorphonuclear leukocytes (PMN) to the site of inflammation; assay: Suppression of migration of polymorphonuclear leukocytes, carboxymethylcellulose-pouch method; type: in vivo, male Donryu rats; details: rats, PMN counted 6 hours after injection into pouch
Method: While using groups of male Donryu rats (six rats per group) and following the carboxymethylcellulose-pouch method (refer to Ishikawa et al. […] ZASSHI (Journal of the Pharmaceutical Society of Japan), 88, 1472, 1968), the extent of inhibition of migration of polymorphonuclear leukocytes to the site of inflammation by present substance No.1 was examined. The specimen (present substance No.1) was dispersed in an aqueous 0.2 % solution of carboxymethylcellulose and the dispersion was administered to each rat at a predetermined dose rate, and only the aqueous 0.2 % solution of carboxymethylcellulose was administered to each rat of control group. The test was carried out by injecting the aqueous 0.2 % solution of carboxymethyl-cellulose into the pouch formed in the body of the rat and after 6 hours of the injection, the number of polymorphonuclear leukocytes in the exudate into the pouch was counted. […]

[3] = system: proliferation of granuloma; assay: Suppression of proliferation of granuloma, filter paper implant method of Fujimura; type: in vivo, male Donryu rats; details: once a day for 10 days, rats, dried granuloma weighed after 11 days
Method: While using groups of male Donryu rats in the fifth week after birth (5 rats per group), the activity of present substance No.1 in suppressing the proliferation of granuloma was tested by the method of Fujimura (refer to OYOYAKURI (Pharmacometrics), 19 (3), 329, 1980).
After soaking sheets of filter paper of 13 mm in diameter and 28 mg in weight into an aqueous 2% solution of carboxymethylcellulose containing both dihydroxystreptomycin and penicillin, each of 10⁶ unit at the respective concentration of 0.1 mg/ml, each of the thus treated sheets was buried subcutaneously into the back of each rat under anaesthesia by ether. […] After 11 days of the treatment, granuloma formed in the rat was removed, dried for 24 hours at 70°C and weighed.

| Compound | LD50 ([1]; oral, male Jcl-ICR mice, dispersed in aqueous 0.2 % carboxymethylcellulose, read-out: LD₅₀ (acute, oral)) [mg/kg] | Rate of suppression of migration of PMN (%) ([2]; dose rate 50 mg/kg) | Granuloma Rate of Suppression (%) ([3]; dose rate 50 mg/kg/day oral) | Rate of suppression of migration of PMN (%) ([2]; dose rate 5 mg/kg) | Granuloma Rate of Suppression (%) ([3]; dose rate 3 mg/kg/day oral) | LD50 ([1]; male, Jcl-ICR, po) [mg/kg] | Rate of suppression of migration of PMN (%) ([2]; dose rate 10 mg/kg) | Granuloma Rate of Suppression (%) ([3]; dose rate 5 mg/kg/day oral) | Granuloma Rate of Suppression (%) ([3]; dose rate 10 mg/kg/day oral) |
| --- | --- | --- | --- | --- | --- | --- | --- | --- | --- |
| O=Cc1ccc(O)c(O)c1 [3,4-dihydroxy-benzaldehyde, 3,4-dihydroxybenzaldehyde, reference compound] | 1500 | 27.5 | 35.6 | – | – | – | – | – | – |
| COc1ccc2c(c1)c(CC(=O)O)c(C)n2C(=O)c1ccc(Cl)cc1 [Indomethacin, reference compound] | – | – | – | 35.7 | – | – | – | – | – |
| C[C@]12C=CC(=O)C=C1CC[C@@H]1[C@@H]2[C@@H](O)C[C@@]2(C)[C@H]1CC[C@]2(O)C(=O)CO [Prednisolone, reference compound] | – | – | – | 37.5 | 42.2 | – | – | – | – |
| CC(=O)Oc1ccc(C(OC(C)=O)OC(C)=O)cc1OC(C)=O [Present Substance No.1, 3,4-diacetoxybenzylidene diacetate] | – | 51.9 | 61.4 | 41.2 | – | > 4000 | 48.0 | 42.8 | 55.3 |
